Here are results for 3 compounds from patent US20030219894A1, “Induction of insulin-producing cells” (JCR Pharmaceuticals Co., Ltd., priority 2002, published 2003).

What all share (format): cell-based
Test [1] has as its system mouse fetal hepatocytes. The test is described as follows: RT-PCR analysis of insulin 1 and 2 gene expression in cultured fetal hepatocytes with medium supplements. The note with it: for induction of insulin 1 and 2 gene expression: supplement separately added to DMEM/F12 containing 10% FBS. How it is done:
For preparing fetal hepatocytes, the liver of fetal ICR mice (embryonic day 13.5) was excised and treated with 0.1% trypsin-phosphate-buffered saline for 5 min at 37° C. A culture medium solution then was added, and the mixture was filtered through a nylon membrane (#200). The cell suspension thus obtained was centrifuged at 50 g for 5 min. The cell pellet was suspended in a medium consisting of 1:1 DMEM/F12 (Sigma D6421) supplemented with 10% fetal bovine serum, L-glutamine (2 mmol/L), β-mercaptoethanol (β-ME), (50 μmol/L), penicillin (100,000 U/L) and streptomycin (100 mg/L). The formula of the 1:1 DMEM/F12 (Dulbecco's Modified Eagle's Medium/Ham's Nutrient Mixture F-12: Sigma D6421) was as follows (in g/L): Ca2Cl2/2H2O (0.1545), CuSO4/5H2O (0.0000013), Fe(NO3)3/9H2O (0.00005). […]
Both insulin 1 and 2 genes were clearly expressed under the culture conditions used, as determined by RT-PCR analysis. […] Each of these supplements was separately added to the DMEM/F12 containing 10% FBS, and effects on insulin expression was evaluated in thus formed different media. […]

For test [2], the system named is mouse embryonic fibroblasts (MEF). The test is described as follows: RT-PCR analysis of insulin 1 and 2 gene expression in mouse embryonic fibroblasts (negative control cells). Conditions: MEF from fetal limbs (ED13.5), medium supplemented with nicotinamide; FIG. 1. As for the experimental part: (§1) Both insulin 1 and 2 genes were clearly expressed under the culture conditions used, as determined by RT-PCR analysis. It was assumed that some of the supplements (nicotinamide, EGF, insulin or dexamethasone) to the culture medium were responsible for the expression of the insulin genes in the hepatocytes. Each of these supplements was separately added to the DMEM/F12 containing 10% FBS, and effects on insulin expression was evaluated in thus formed different media. When cultured in a medium not supplemented with nicotinamide (containing just 0.0165 mmol/L of nicotinamide), the mouse fetal hepatocytes either din not express the insulin 1 or 2 gene at all, or did expressed them but only very poorly (FIG. 1). […] As a negative control, mouse embryonic fibroblasts (MEF) were prepared from fetal limbs (ED13.5), and cultured under the same conditions. […] Immunohistochemistry using anti-insulin antibody was employed to confirm that a high-concentration of nicotinamide was requited for the differentiation of mouse fetal hepatocytes into insulin-producing cells.

Test [3] has as its system mouse fetal hepatocytes. The test is described as follows: Immunohistochemistry using anti-insulin antibody. The note with it: medium supplemented with nicotinamide; FIG. 3 vs FIG. 2.
Source text: Fetal hepatocytes were fixed with 4% paraformaldehyde in 0.1 M phosphate buffer and stained by direct immunoperoxidase method using a guinea pig anti-pig insulin antibody (Zymed Laboratories, South San Francisco, Calif.) and a peroxidase-labeled pig anti-guinea pig IgG (DAKO Japan, Kyoto).
as §1

Consider `NC(=O)c1cccnc1` [nicotinamide], for which, in the test with mouse fetal hepatocytes [1] (medium supplemented with 10 mmol/L of nicotinamide, DMEM/F12 containing 10% FBS, FIG. 1), the “expression of the insulin 1 and 2 genes” value is reported as “markedly induced”. Also, in test [2], the “expression of the insulin 1 and 2 genes in MEF” value is listed as “expressed”. For the same compound, in the test with mouse fetal hepatocytes [3], the “generation of insulin-positive cells (anti-insulin immunostaining)” value was “led to generation of insulin-positive cells”.

“EGF: epidermal growth factor (EGF), culture medium supplement (NSDSECPLSHDGYCLHDGVCMYIEALDKYACNCVVGYIGERCQYRDLKWWELR; Epidermal growth factor; UniProt P01133 971-1023, looked up)”: the “induction of insulin 1 and 2 gene expression” value in the test on mouse fetal hepatocytes [1] is recorded as “either had no effect or had only a marginal effect”.

Regarding “insulin: insulin, culture medium supplement (172 nmol/L)”, in the test with mouse fetal hepatocytes [1], the “induction of insulin 1 and 2 gene expression” value was “either had no effect or had only a marginal effect”.
